Here are results for 1 substance from patent US20230338316A1, “ABBAPOLINS AS INHIBITORS AND DEGRADERS OF POLO-LIKE KINASES” (UNIVERSITY OF SOUTH CAROLINA, priority 2022, published 2023).

Format in all cases: cell-based
Test [1] concerns HeLa cervical cancer cells. Nature of the test: MTT cell viability assay, HeLa. As to conditions: p53 MT, PTEN WT. An excerpt: HeLa cervical cancer cells were obtained from ATCC (Manassas, VA). Histone H2B GFP-labeled HeLa cells (HeLa-H2B-GFP) were kindly provided by Dr. Geoffrey Wahl (Gene Expression Laboratory, Salk Institute), and were confirmed as >95% GFP positive by FACS (data not shown) but were not otherwise authenticated. Cells were maintained in DMEM (Invitrogen™, Carlsebad, CA) supplemented with 10% FBS or Corning® Nu-serum™ (BD™ Biosciences, Franklin Lakes, NJ) and 1% penicillin/streptomycin (Invitrogen™) in a humidified incubator and 5% CO2 at 37° C.
Exponentially growing cells were plated in 96-well dishes. Dose response curves were used to treat cells for 72 hours with inhibitors. Following the three-day treatment, cell viability was measured using the MTT (3-(4,5-dimethylthiazol-2-yl)-2,5-diphenyltetrazolium bromide) colorimetric assay. Cells were incubated for 3 hours with MTT allowing viable cells to metabolize the tetrazolium dye to a purple colored solution. Absorbance measurements (595 nm) were quantified using a DTX 880 plate reader and IC50 values were generated for FLIPs.
In general terms: Tetrazolium dyes change colour on reduction, which living cells bring about.

In a further test the test system is apoptosis. Description: Cell cycle analysis and caspase apoptosis assay. As to conditions: versus negative control. An excerpt: Disclosed small molecule inhibitors can also encourage apoptosis.
The subject of the next test is HOP-92. Description: Single dose cell viability assay, HOP-92. As to conditions: HOP-92 (NSCLC), single dose 10 μM. On the procedure:
(§1) Lead abbapolin compounds were tested in multiple cancer cell lines, including non-small cell lung cancer (NSCLC) cells, melanoma cells, colon cancer cells, central nervous system (CNS) cancer cells, prostate cancer cells, renal cancer cells, and breast cancer cells. Each of these cancer cells lines were sensitive to the lead abbapolin compounds in a cell viability assay, including 6184 (Table 3), 6277 (Table 4), 6279 (Table 5), 6355 (Table 6), 6359 (Table 7), 6369 (Table 8), and 6421 (Table 9).

Another test has as its system CCRF-CEM. Nature of the test: Single dose cell viability assay, CCRF-CEM. Conditions: CCRF-CEM (Leukemia), single dose 10 μM. On the procedure: as §1
A further test deals with NCI-H522. Description: Single dose cell viability assay, NCI-H522. Conditions: NCI-H522 (NSCLC), single dose 10 μM. On the procedure: as §1
The next test deals with UO-31. Description: Single dose cell viability assay, UO-31. Conditions: UO-31 (Renal), single dose 10 μM. Here is the method: as §1
Test [2] has as its target T1, PLK1 (Homo sapiens, UniProt P53350). Nature of the test: PLK1 degradation in SH-SY5Y cells. On the set-up: endogenous in cells. Here is the method:
Abbapolin compounds activity was evaluated in neuroblastoma cells. […] Further, abbapolins induced PLK1 degradation in SH-SY5Y cells (FIG. 14-16).

In test [3] the target is T1, PLK1. Nature of the test: Cellular thermal shift assay (CETSA). On the set-up: endogenous in cells; host or cells: PC3 prostate cancer cells. Here is the method: Cellular thermal shift assay (CETSA) was performed with PC3 cells cultured in RPMI medium supplemented with 10% FBS. For an initial determination of the melting profile of PLK1 AND PLK3, cells dispensed into 96-well PCR plates in the above medium (6000 cells/well in 50 μL) were subjected to temperature gradient (38-60° C.) for 10 min. […] Centrifugation was performed at 14000 rpm to sediment the denatured protein content. Supernatant was collected and subjected to SDS-PAGE, and immunodetection was performed using anti-PLK1 and anti-PLK3 antibodies. PLK1 and PLK3 bands were quantified on a LI-COR C-Digit Blot Scanner, and Tagg and Tagg values were calculated for both proteins. In subsequent experiments, cells were treated at increasing doses (3.0, 1.0, 0.3, 0.1, 0.03 μM) of inhibitors together with DMSO control, for 2 h. Cells were then subjected to heat shock at Tagg for 10 min, and unstable protein was removed by centrifugation step. Following immuno-blotting, bands of stable PLK1 and PLK3 were quantified, normalized to loading control and plotted using GraphPad Prism software. EC50 values for inhibitors were calculated. […] The EC50 of the peptides were determined from the curve fit of the dose response.

Test [4] addresses T1, PLK1. Description: PLK1 degradation in PC3 cells. Set-up: endogenous in cells; host or cells: PC3 prostate cancer cells. Conditions: PC3 cell line, 24 hours. On the procedure:
For example, PC3 cells were treated with varying dosages of abbapolin 6369, and percent of PLK1 degradation was measured at 24 hours (FIGS. 8A-8B). HeLa cells were treated with 25 μM abbapolin 6369, and time points shown in the assay were 24 hours, 48 hours, and 72 hours (FIGS. 9A-9B). PC3 cells were treated with varying dosages of abbapolin 6329, and percent of PLK1 degradation was measured at 24 hours (FIGS. […]). HeLa cells were treated with varying dosages of abbapolin 6329, and time points shown in the assay were 24 hours, 48 hours, and 72 hours (FIGS. 11A-11B).

T1 sequence (P53350 whole entry): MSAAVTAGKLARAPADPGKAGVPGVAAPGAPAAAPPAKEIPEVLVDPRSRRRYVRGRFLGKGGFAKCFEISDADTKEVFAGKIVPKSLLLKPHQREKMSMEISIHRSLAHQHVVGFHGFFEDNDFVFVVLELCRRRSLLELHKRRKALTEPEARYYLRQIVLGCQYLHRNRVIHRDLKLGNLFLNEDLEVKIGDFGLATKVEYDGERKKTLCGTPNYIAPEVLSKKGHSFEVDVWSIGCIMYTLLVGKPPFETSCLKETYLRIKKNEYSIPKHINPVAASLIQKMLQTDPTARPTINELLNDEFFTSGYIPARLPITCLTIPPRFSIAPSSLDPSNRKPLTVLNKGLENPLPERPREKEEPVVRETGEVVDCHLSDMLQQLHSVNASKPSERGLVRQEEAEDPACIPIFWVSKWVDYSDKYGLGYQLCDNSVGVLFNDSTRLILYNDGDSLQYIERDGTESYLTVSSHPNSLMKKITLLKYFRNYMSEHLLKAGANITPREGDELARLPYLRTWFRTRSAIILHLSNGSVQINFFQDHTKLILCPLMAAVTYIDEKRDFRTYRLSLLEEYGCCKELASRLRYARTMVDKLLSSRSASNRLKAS

A word on the IC50: it is the midpoint of a concentration-inhibition curve. Read a low IC50 as inhibition by little substance. By EC50 is commonly meant the concentration needed to bring the measured effect to its halfway point. Turning to “3-(4-octylbenzamido)phenyl phosphate [compound 6369]”, in test [1], the IC50 came to 17.5 ± 2.9 µM. Also, in the test with apoptosis, the levels of apoptosis result is “high levels of apoptosis”. In addition, the “Cells Remaining (%)” value is recorded as 43.19% in the test with HOP-92, 24.97% in the test with CCRF-CEM, 33.06% in the test on NCI-H522 and 46.64% in the test with UO-31. The PLK1 degradation result at PLK1 [2] and on PLK1 [4] was “degradation of PLK1” each time. Also, the EC50 at PLK1 [3] was 150 nM.
